Measurements from publication PMC8858318, “Targeting autophagy peptidase ATG4B with a novel natural product inhibitor Azalomycin F4a for advanced gastric cancer” (Cell Death & Disease, 2022).
pKd: −log10 of the molar value.

Target: T1, ATG4B (Homo sapiens, UniProt Q9Y4P1)
T1 sequence (Q9Y4P1 1-393): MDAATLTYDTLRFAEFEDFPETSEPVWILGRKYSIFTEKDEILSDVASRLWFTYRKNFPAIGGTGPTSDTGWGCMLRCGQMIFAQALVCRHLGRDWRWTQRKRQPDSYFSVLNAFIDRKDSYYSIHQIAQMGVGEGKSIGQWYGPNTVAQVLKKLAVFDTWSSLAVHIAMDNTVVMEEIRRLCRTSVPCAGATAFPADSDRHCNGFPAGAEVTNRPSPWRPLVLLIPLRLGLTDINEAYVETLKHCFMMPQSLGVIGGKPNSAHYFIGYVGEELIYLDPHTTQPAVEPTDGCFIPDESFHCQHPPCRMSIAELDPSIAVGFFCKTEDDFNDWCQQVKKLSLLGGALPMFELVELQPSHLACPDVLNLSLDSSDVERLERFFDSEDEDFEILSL
Assay: SPR (Biacore 8K, immobilized purified ATG4B); also FRET activity assay and gel-based FRET-GATE16 cleavage assay
Assay type: binding

CN=C(N)NCCC/C=C/CCCC(C)C1OC(=O)/C(C)=C\C=C/C(C)C(O)CC(O)C(C)C(O)CCC(C)C(O)CC2(O)OC(CC(OC(=O)CC(=O)O)CC(O)CC(O)CC(O)/C(C)=C\C=C/C1C)CC(O)C2O (stereo not shown) [Am-F4a, Azalomycin F4a]
pKd: 4.93
